For the test, the target named is T1, rat intestinal alpha glucosidase.
T1 construct: gene Si; rat intestinal alpha-glucosidase preparation
Nature of the test: alpha-glucosidase inhibition assay. It is filed as biochemical. The note with it: standard; rat intestinal enzyme.

Values after ≈ are worked out from the molar mass of the structure shown.

As usually defined, the IC50 is the point on the concentration scale where inhibition reaches its midpoint. Read a low IC50 as higher potency. Consider `C[C@H]1O[C@H](O[C@H]2[C@H](O)[C@@H](O)[C@@H](O[C@H]3[C@H](O)[C@@H](O)C(O)O[C@@H]3CO)O[C@@H]2CO)[C@H](O)[C@@H](O)[C@@H]1N[C@H]1C=C(CO)[C@@H](O)[C@H](O)[C@H]1O` (stereo partly shown) [acarbose], for which the concentration for half-maximal inhibition (IC50) is 49.78 ± 1.45 µg/mL (≈ 77.1 µM).
